For one assay, the target named is T1, PDGF-Ra (Homo sapiens, UniProt P16234).
T1 construct: host or cells: G-292 human osteosarcoma cells
In words: Inhibitory activity against PDGF-Ra phosphorylation by PDGF-AA stimulation using G292. The class given is cell-based. As to conditions: for IC50: > means inhibition at indicated concentration not more than 50%, < and << not less than 50%, read-out: PDGF (E) IC50; for inhibition at 0.1 µM: G292, figure within parentheses in >100( ), at 100 nM, read-out: PDGF (E) inhibition (%) at 100 nM. The method, boiled down: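 Human osteosarcoma G-292, 0.1% FBS o/n; cpd (DMSO) 1 h 37 °C; PDGF-AA 50 ng/ml 5 min; lyse 20 min RT; PY-20 capture 4 °C o/n; anti-PDGF-Ra + HRP-GAR; OD450.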

A further assay has as its target T2, c-kit (Homo sapiens, UniProt P10721).
T2 construct: MO7e (human megakaryocytic leukemia cell line) which had been arrested for 20 hr; endogenous in cells; host or cells: MO7e human megakaryocytic leukemia cell line
In words: Inhibitory activity against c-kit autophosphorylation (MO7e cells, h-SCF). The class given is cell-based. As to conditions: for inhibition at 1 µM: Mo7e, figure within parentheses in −( ) or >1000( ), at 1000 nM; for IC50: MO7e cells, 50 ng/ml h-SCF, read-out: c-kit IC50. In short, it runs like this:
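Phospho-c-kit ELISA: plate-bound PY-20 anti-phosphotyrosine captures lysate, anti-c-kit plus peroxidase-labelled secondary antibody detect, read at 450 nm. Lysates come from 20 hr-arrested MO7e cells given compound for 1 hr before a 5 min 50 ng/ml h-SCF stimulus.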

Bounds are passed on as bounds.

T1 sequence (P16234 24-1089): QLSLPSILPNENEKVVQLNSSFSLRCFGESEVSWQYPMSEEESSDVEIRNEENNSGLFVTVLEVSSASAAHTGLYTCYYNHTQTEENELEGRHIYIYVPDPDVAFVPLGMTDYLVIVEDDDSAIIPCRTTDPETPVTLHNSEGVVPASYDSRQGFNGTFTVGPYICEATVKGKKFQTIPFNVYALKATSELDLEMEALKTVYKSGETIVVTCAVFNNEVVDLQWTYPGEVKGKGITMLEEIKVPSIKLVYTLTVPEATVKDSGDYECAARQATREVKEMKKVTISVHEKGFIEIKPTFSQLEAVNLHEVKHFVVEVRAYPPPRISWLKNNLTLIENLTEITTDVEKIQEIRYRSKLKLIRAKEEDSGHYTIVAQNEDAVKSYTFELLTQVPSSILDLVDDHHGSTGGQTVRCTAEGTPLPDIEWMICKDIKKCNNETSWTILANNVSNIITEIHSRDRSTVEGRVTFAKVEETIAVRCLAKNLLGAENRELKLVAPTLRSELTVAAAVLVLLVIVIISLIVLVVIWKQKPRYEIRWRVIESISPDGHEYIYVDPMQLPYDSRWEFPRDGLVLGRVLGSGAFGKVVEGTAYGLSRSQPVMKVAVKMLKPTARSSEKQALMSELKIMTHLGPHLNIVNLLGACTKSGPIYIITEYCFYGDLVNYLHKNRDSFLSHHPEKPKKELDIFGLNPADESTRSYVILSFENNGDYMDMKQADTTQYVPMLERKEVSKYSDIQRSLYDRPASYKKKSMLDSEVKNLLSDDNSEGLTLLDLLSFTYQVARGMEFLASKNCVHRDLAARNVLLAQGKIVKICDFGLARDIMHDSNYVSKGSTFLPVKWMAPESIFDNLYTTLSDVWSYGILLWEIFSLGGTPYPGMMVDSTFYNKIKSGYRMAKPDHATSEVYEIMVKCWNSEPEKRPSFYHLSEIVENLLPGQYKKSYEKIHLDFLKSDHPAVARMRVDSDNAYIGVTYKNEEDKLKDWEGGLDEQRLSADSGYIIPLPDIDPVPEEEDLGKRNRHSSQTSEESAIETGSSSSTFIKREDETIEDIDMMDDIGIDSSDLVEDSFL
T2 sequence (P10721 26-976): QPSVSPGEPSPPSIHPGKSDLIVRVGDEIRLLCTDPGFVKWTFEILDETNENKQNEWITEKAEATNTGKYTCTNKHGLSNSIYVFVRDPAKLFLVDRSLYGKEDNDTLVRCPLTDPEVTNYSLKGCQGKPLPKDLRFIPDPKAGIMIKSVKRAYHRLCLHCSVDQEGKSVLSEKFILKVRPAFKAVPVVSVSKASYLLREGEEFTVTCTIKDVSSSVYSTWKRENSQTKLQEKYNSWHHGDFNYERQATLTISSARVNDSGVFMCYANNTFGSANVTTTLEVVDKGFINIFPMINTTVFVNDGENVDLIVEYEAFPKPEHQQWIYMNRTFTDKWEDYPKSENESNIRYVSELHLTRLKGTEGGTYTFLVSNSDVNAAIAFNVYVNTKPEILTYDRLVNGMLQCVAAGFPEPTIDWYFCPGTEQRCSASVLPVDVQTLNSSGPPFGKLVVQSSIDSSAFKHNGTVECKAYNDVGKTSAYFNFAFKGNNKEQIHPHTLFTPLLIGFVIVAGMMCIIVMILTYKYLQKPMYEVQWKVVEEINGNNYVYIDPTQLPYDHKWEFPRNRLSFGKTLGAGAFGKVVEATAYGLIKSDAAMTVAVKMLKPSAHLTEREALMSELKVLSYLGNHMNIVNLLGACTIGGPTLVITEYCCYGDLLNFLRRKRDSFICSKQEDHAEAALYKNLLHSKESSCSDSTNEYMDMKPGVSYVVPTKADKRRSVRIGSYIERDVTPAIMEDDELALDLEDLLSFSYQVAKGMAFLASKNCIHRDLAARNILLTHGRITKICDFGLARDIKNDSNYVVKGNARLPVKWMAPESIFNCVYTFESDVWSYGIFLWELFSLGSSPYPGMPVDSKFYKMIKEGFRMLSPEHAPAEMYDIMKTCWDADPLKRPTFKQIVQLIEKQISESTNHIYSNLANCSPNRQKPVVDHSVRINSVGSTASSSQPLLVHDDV

In the case of `CCCCN(CCCC)CCNC(=O)Nc1cc(C)c(Oc2ccnc3cc(OC)c(OC)cc23)cc1C` [Example 683, N-[2-(Dibutylamino)ethyl]-N′-{4-[(6,7-dimethoxy-4-quinolyl)oxy]-2,5-dimethylphenyl}urea], at PDGF-Ra, the IC50 is over 100 nM and the inhibition at 0.1 µM worked out at 40%. The inhibition at 1 µM on c-kit turned out to be 26%.
Turning to `CCCCN(CCCC)CCNC(=O)Nc1ccc(Oc2ccnc3cc(OC)c(OC)cc23)c(C)c1C` [Example 684, N-[2-(Dibutylamino)ethyl]-N′-{4-[(6,7-dimethoxy-4-quinolyl)oxy]-2,3-dimethylphenyl}urea], the IC50 on PDGF-Ra is 52 nM; at c-kit it was 549 nM.
Turning to `CCCCN(CCCC)CCNC(=O)Nc1ccc(Oc2ncnc3cc(OC)c(OC)cc23)cc1` [Example 685, N-[2-(Dibutylamino)ethyl]-N′-{4-[(6,7-dimethoxy-4-quinazolinyl)oxy]phenyl}urea], the IC50 on PDGF-Ra was found to be 22 nM. The inhibition at 1 µM at c-kit came to 41%.
For `CCCCN(CCCC)CCNC(=O)Nc1ccc(Oc2ncnc3cc(OC)c(OC)cc23)cc1Cl` [Example 686, N-{2-Chloro-4-[(6,7-dimethoxy-4-quinazolinyl)oxy]phenyl}-N′-[2-(dibutylamino)ethyl]urea] the same measures were 38 nM and 19%.
For `CCCCN(CCCC)CCNC(=O)Nc1ccc(Oc2ncnc3cc(OC)c(OC)cc23)cc1OC` [Example 688, N-[2-(Dibutylamino)ethyl]-N′-{4-[(6,7-dimethoxy-4-quinazolinyl)oxy]-2-methoxyphenyl}urea] the same measures were 34 nM and 19%.
Regarding `CCCCN(CCCC)CCNC(=O)Nc1ccc(Oc2ccnc3cc(OC)c(OC)cc23)cc1OC` [Example 689, N-[2-(Dibutylamino)ethyl]-N′-{4-[(6,7-dimethoxy-4-quinolyl)oxy]-2-methoxyphenyl}urea], on PDGF-Ra, the IC50 was over 100 nM and the inhibition at 0.1 µM amounted to 42%. Besides, at c-kit, the IC50 stood at 571 nM.
For `COc1cc2ncnc(Oc3ccc(NC(=O)N4CCN(Cc5ccccc5)CC4)cc3)c2cc1OC` [Example 690, N1-{4-[(6,7-Dimethoxy-4-quinazolinyl)oxy]phenyl}-4-benzyl-1-piperazinecarboxamide], on PDGF-Ra, the IC50 is over 100 nM and the inhibition at 0.1 µM is 10%. In addition, the inhibition at 1 µM at c-kit worked out at 11%.
For `COc1cc2ncnc(Oc3ccc(NC(=O)N4CCN(c5ccccc5)CC4)cc3)c2cc1OC` [Example 691, N1-{4-[(6,7-Dimethoxy-4-quinazolinyl)oxy]phenyl}-4-phenyl-1-piperazinecarboxamide] the same measures were over 100 nM, 10% and 18%.
Regarding `COc1cc2nccc(Oc3ccc(NC(=S)NC(=O)c4ccc(Br)s4)c(C)c3)c2cc1OC` [Example 692, N-[(5-Bromo-2-thienyl)carbonyl]-N′-{4-[(6,7-dimethoxy-4-quinolyl)oxy]-2-methylphenyl}thiourea], at PDGF-Ra, the IC50 was over 100 nM and the inhibition at 0.1 µM worked out at 35%. In addition, at c-kit, the IC50 was over 1000 nM and the inhibition at 1 µM came to 20%.
Take `COc1cc2nccc(Oc3ccc(NC(=S)NC(=O)c4ccc(Br)s4)cc3Cl)c2cc1OC` [Example 693, N-[(5-Bromo-2-thienyl)carbonyl]-N′-{3-chloro-4-[(6,7-dimethoxy-4-quinolyl)oxy]phenyl}thiourea]: the IC50 at PDGF-Ra is 56 nM; at c-kit it was over 1000 nM. In addition, the inhibition at 1 µM on c-kit was determined as 46%.
As to `COc1cc2nccc(Oc3ccc(NC(=S)NC(=O)c4ccc(Cl)s4)c(C)c3)c2cc1OC` [Example 694, N-[(5-Chloro-2-thienyl)carbonyl]-N′-{4[(6,7-dimethoxy-4-quinolyl)oxy]-2-methylphenyl}thiourea], on PDGF-Ra, the IC50 is over 100 nM and the inhibition at 0.1 µM amounted to 12%. The inhibition at 1 µM at c-kit turned out to be 37%.
The matching figures for `COc1cc2nccc(Oc3ccc(NC(=S)NC(=O)c4ccc(Cl)s4)cc3Cl)c2cc1OC` [Example 695, N-{3-Chloro-4-[(6,7-dimethoxy-4-quinolyl)oxy]phenyl}-N′-[(5-chloro-2-thienyl)carbonyl]thiourea]: over 100 nM, 10% and 37%.
The matching figures for `COc1cc2nccc(Oc3ccc(NC(=S)NC(=O)CCSC)c(C)c3)c2cc1OC` [Example 696, N-{4-[(6,7-Dimethoxy-4-quinolyl)oxy]-2-methylphenyl}-N′-[3-(methylthio)propanoyl]-thiourea]: over 100 nM, 37% and 35%.
Regarding `COc1cc2nccc(Oc3ccc(NC(=S)NC(=O)CCSC)cc3Cl)c2cc1OC` [Example 697, N-{3-Chloro-4-[(6,7-dimethoxy-4-quinolyl)oxy]phenyl}-N′-[3-(methylthio)propanoyl]thiourea], the figures for the IC50 on PDGF-Ra and at c-kit were under 10 nM and 211 nM, respectively.
`COc1cc2nccc(Oc3ccc(NC(=S)NC(=O)c4cc(C)oc4C)c(C)c3)c2cc1OC` [Example 698, N-{4-[(6,7-Dimethoxy-4-quinolyl)oxy]-2-methylphenyl}-N′-[(2,5-dimethyl-3-furyl)carbonyl]thiourea]: on PDGF-Ra, the IC50 is over 100 nM and the inhibition at 0.1 µM is 34%. For the same compound, the inhibition at 1 µM at c-kit was determined as 29%.
For `COc1cc2nccc(Oc3ccc(NC(=S)NC(=O)c4cc(C)oc4C)cc3Cl)c2cc1OC` [Example 699, N-{3-Chloro-4-[(6,7-dimethoxy-4-quinolyl)oxy]phenyl}-N′-[(2,5-dimethyl-3-furyl)carbonyl]thiourea], the IC50 on PDGF-Ra worked out at 13 nM. The inhibition at 1 µM at c-kit was 29%.
Regarding `COc1cc2nccc(Oc3ccc(NC(=S)NC(=O)Cc4cccs4)c(C)c3)c2cc1OC` [Example 700, N-{4-[(6,7-Dimethoxy-4-quinolyl)oxy]-2-methylphenyl}-N′-[2-(2-thienyl)acetyl]thiourea], at PDGF-Ra, the IC50 is over 100 nM and the inhibition at 0.1 µM came to 30%. Besides, the inhibition at 1 µM on c-kit was 0%.
For `COc1cc2nccc(Oc3ccc(NC(=S)NC(=O)Cc4cccs4)cc3Cl)c2cc1OC` [Example 701, N-{3-Chloro-4-[(6,7-dimethoxy-4-quinolyl)oxy]phenyl}-N′-[2-(2-thienyl)acetyl]thiourea], the IC50 is under 10 nM at PDGF-Ra and 459 nM on c-kit.
The matching figures for `COc1cc2nccc(Oc3ccc(NC(=S)NC(=O)Cc4ccccc4C)cc3Cl)c2cc1OC` [Example 702, N-{3-Chloro-4-[(6,7-dimethoxy-4-quinolyl)oxy]phenyl}-N′-[2-(2-methylphenyl)acetyl]thiourea]: under 10 nM and 495 nM.
For `COc1cc2ncnc(Oc3ccc(NC(=S)NC(=O)Cc4ccccc4C)cc3)c2cc1OC` [Example 703, N-{4-[(6,7-Dimethoxy-4-quinazolinyl)oxy]phenyl}-N′-[2-(2-methylphenyl)acetyl]thiourea] the same measures were under 10 nM and 375 nM.
Consider `COc1cc2nccc(Oc3ccc(NC(=S)NC(=O)CC4CCCCC4)cc3Cl)c2cc1OC` [Example 704, N-{3-Chloro-4-[(6,7-dimethoxy-4-quinolyl)oxy]phenyl}-N′-(2-cyclohexylacetyl)thiourea], for which the IC50 at PDGF-Ra worked out at 16 nM; on c-kit, 177 nM.
The matching figures for `COc1cc2ncnc(Oc3ccc(NC(=S)NC(=O)CC4CCCCC4)cc3)c2cc1OC` [Example 705, N-(2-Cyclohexylacetyl)-N′-{4-[(6,7-dimethoxy-4-quinazolinyl)oxy]phenyl}thiourea]: under 10 nM and 147 nM.
For `COc1cc2nccc(Oc3ccc(NC(=S)NCc4ccccc4)cc3Cl)c2cc1OC` [Example 706, N-Benzyl-N′-{3-chloro-4-[(6,7-dimethoxy-4-quinolyl)oxy]phenyl}thiourea] the same measures were under 10 nM and 227 nM.
The matching figures for `COc1cc2ncnc(Oc3ccc(NC(=S)NCc4ccccc4)cc3)c2cc1OC` [Example 707, N-Benzyl-N′-{4-[(6,7-dimethoxy-4-quinazolinyl)oxy]phenyl}thiourea]: 17 nM and 209 nM.
On to `COc1cc2nccc(Oc3ccc(NC(=S)NC(=O)Cc4cccc5ccccc45)cc3Cl)c2cc1OC` [Example 708, N-{3-Chloro-4-[(6,7-dimethoxy-4-quinolyl)oxy]phenyl}-N′-[2-(1-naphthyl)acetyl]thiourea], for which the IC50 at PDGF-Ra is 51 nM; at c-kit it was 348 nM.
For the compound `COc1cc2ncnc(Oc3ccc(NC(=S)NC(=O)Cc4cccc5ccccc45)cc3)c2cc1OC` [Example 709, N-{4-[(6,7-Dimethoxy-4-quinazolinyl)oxy]phenyl}-N′-[2-(1-naphthyl)acetyl]thiourea], the IC50 at PDGF-Ra is 19 nM. Besides, the inhibition at 1 µM on c-kit stood at 19%.
As to `COc1cc2nccc(Oc3ccc(NC(=S)NC(=O)Cc4ccc5ccccc5c4)cc3Cl)c2cc1OC` [Example 710, N-{3-Chloro-4-[(6,7-dimethoxy-4-quinolyl)oxy]phenyl}-N′-[2-(2-naphthyl)acetyl]thiourea], at PDGF-Ra, the half-maximal inhibitory concentration (IC50) was over 100 nM and the inhibition at 0.1 µM was found to be 33%. Also, the inhibition at 1 µM at c-kit was 30%.
The matching figures for `COc1cc2ncnc(Oc3ccc(NC(=S)NC(=O)Cc4ccc5ccccc5c4)cc3)c2cc1OC` [Example 711, N-{4-[(6,7-Dimethoxy-4-quinazolinyl)oxy]phenyl}-N′-[2-(2-naphthyl)acetyl]thiourea]: over 100 nM, 34% and 17%.

As usually defined, the IC50 is the concentration at which inhibition is half-maximal. As usually defined, the inhibition is the percentage by which the read-out fell short of the control.

The values are drawn from patent US7135466B2 (Kirin Beer Kabushiki Kaisha, priority 1999, dated 2006).
